In general, logP refers to the decadic logarithm of the partition coefficient of the neutral form, usually between octanol and water. Low values mean a more hydrophilic compound, high ones a more lipophilic compound. As to `CC(C)c1cccc(C(C)C)c1NC(=O)CC(=O)CCCCCCCCCCO`, the lipophilicity (logP) is 4.2.

For `CCCCCCCCCCCC(=O)C(C)(C)C(=O)N(C)c1c(OC)cc(OC)cc1OC`, the log partition coefficient (logP) was 6.67.

`CC(C)c1cccc(C(C)C)c1NC(=O)CC(=O)C(c1ccccc1)c1ccccc1` yielded a lipophilicity (logP) of 3.96.

Compound `CC(C)c1cccc(C(C)C)c1NC(=O)CC(O)CC(c1ccccc1)c1ccccc1` (stereo not given) yielded a lipophilicity (logP) of 4.01.

`CC(C)c1cccc(C(C)C)c1NC(=O)CC(=O)c1ccccc1` came in with a logP of 2.87.

As to `CCCCCCCCCCCC(=O)CC(=O)Nc1c(OC)cc(OC)cc1OC`, the lipophilicity (logP) was found to be 5.02.

For the compound `CCCCCCCCCCCC(=O)C(C)(C)C(=O)Nc1c(OC)cc(OC)cc1OC`, the log partition coefficient (logP) worked out at 4.88.

In the case of `CC(C)c1cccc(C(C)C)c1NC(=O)CC(=O)C1(c2ccccc2)CCCC1`, the logP came to 4.55.

In turn, `CC(C)c1cccc(C(C)C)c1NC(=O)CC(CC(c1ccccc1)c1ccccc1)=NO` came in with a log partition coefficient (logP) of 3.93.

For the compound `CCCCCCCC1CC(C(=O)Nc2c(C(C)C)cccc2C(C)C)C(=O)O1` (stereo not given), the log partition coefficient (logP) came to 4.72.

These data come from the SangsterLogP compilation.
